# Columns and labels:
# rabbit platelet = rabbit platelet aggregation induced by ADP (Born's method); assay type: cell-based; details: rabbit platelet-rich plasma, ADP 12 μM, 5th minute, 0.27 mg/ml
# Protocol: 1.1 The influence on the rabbit platelet's aggregative character: Rabbit platelet plasma was prepared according to the Csalay's method. Lucid rabbit's blood was collected by carotid arterial cannula, then the blood was mingled with 3.8% sodium citrate in proportion of 9:1 to anticoagulate. The mixture was centrifuged on the speed of 1000 rpm for 5 minutes then at the speed of 3000 rpm for 10 minutes. The blood plasma was separated into the platelet-rich plasma and the platelet-absent plasma. When conducting the measurement, the platelet aggregation percent was regulated to 50-60%. The platelet aggregation experiment was performed according to the Born's method by the PPP autobalance platelet-aggregation-machine (type SPA-3), keeping the concentrate of ADP(the aggregation inducer) at 12 μM, then collecting the data and comparing the aggregation percents between the treatment group and the control group at the 5th minute.
# rat platelet = rat platelet aggregation after gastric administration; assay type: in vivo; details: 2.7 × 10-2 g/kg PO, ADP 2.8 μM
# Protocol: 1.1 The influence on the rabbit platelet's aggregative character: Rabbit platelet plasma was prepared according to the […] method. […] The mixture was centrifuged on the speed of 1000 rpm for 5 minutes then at the speed of 3000 rpm for 10 minutes. The blood plasma was separated into the platelet-rich plasma and the platelet-absent plasma. […] 1.5 hour after the administration, the blood from the abdominal aorta was collected on the condition of anesthesia by ether. The platelet plasma was prepared by the same method mentioned above, and the PLT aggregation experiment performed by the same machine with a different ADP concentrate of 2.8 μM.
# male Wistar rats = test: rat's experimental thrombosis (extracorporeal circulation); assay type: in vivo; details: 0.05 g/kg iv
# Protocol: 1.3 The influence on the rat's experimental thrombosis: Male Wistar rats weighing 270-370 g were chosen to be anaesthetized by belly injection of sodium pentobarbital on the dosage of 50 mg/kg, then the rats were fixed at the supine position and the right common carotid artery and the left external jugular vein were detached. A polyvinyl pipe of 19.5 cm long with the inside diameter of 1.5 mm embedded in a 5.0 cm-long type 4 suture and filled with the solution of heparin and normal saline (25 μ/kg) was inserted into the right common carotid artery one end and the left external jugular vein the other end. […] 15 minutes later, the pipe was closed, the suture taken out and the greenweight measured.
# female NIH mice [1] = test: mouse electrostimulation pain threshold; assay type: in vivo; details: 0.05 g/kg ip
# Text: 2.3 The influence on the electrostimulation of mouse: The experiment method adopted was to simulate the mouse's vola with the electricity. Female NIH mice weighing 18-22 g were chosen and put on the conductive copper-wire plate of the YSD-4 multipurpose apparatus's zoopery box. The electricity was switched on and the time when the mouse […] chosen as the index of pain threshold. The sensitive mice whose pain thresholds were shorter than 15 s were chosen to do the experiment.
# female NIH mice [2] = test: mouse's body-twisting method (ethanoic acid); assay type: in vivo; details: 0.10 g/kg ip, 0.8% ethanoic acid, 20 minutes
# Protocol: The experiment method was the mouse's body-twisting method. Female NIH mice weighing 18-22 g were divided into groups at random and each group had 10 mice. […] The number of the mice's body twisting in the following 20 minutes were recorded as the index.
# Kunming mice = test: mouse's spontaneous activity; assay type: in vivo; details: 5 × 10-2 g/kg PO
# Text: Kunming mice weighing 18-22 g were chosen and divided into groups at random. Each group was made up of 10 mice.
# female NIH mice [3] = test: mouse hot-plate method pain threshold; assay type: in vivo; details: 1.5 × 10-2 g/kg ip
# Protocol: 2.1 The influence on the mouse's reaction to the heat: The experiment referred to the mouse hot-plate method: female NIH mice weighing 18-22 g were put on the type CS501 ultra thermostat's metallic plate, on which the temperature was 55.0±0.5° C. The action of sucking the postpedes and jumping were concerned as the indexes to the pain caused by the heat and the shortest time when the mouse shown the indexes was defined as the pain threshold. The sensitive mice whose pain threshold were shorter than 30 s were chosen and divided into 4 groups according to their pain threshold, each group including 10 mice. […] If the threshold was beyond 60 s, it would be recorded as 60 s. […] The group on the dosage of 5.0 g/kg improved the pain threshold by 148.74% (p<0.001), and the effect lasted 5 hours.
# SD white rats = test: rat's tail-whipping method pain threshold; assay type: in vivo; details: 1.5 × 10-2 g/kg PO
# Protocol: 2.2 The influence on the rat's reaction to the heat. The experiment referred to the rat's tail-whipping method: SD white rats weighing 180-220 g were chosen and the distal ⅓ of their tails were dipped into hot water in which the temperature was regulated to 55.0±0.5° C. by the CS501 ultra thermostat. The tail's whipping out of the water was defined to be the index of pain. The rats were divided equably into 5 groups according to the pain threshold and each group had 9 rats. […] (p<0.05), 64.52% (P<0.05), the duration of effect was 1 h, 4 h.
# [4] = tested on: spontaneous hypertension rat (SHR); test: BP of the spontaneous hypertension rat; assay type: in vivo; details: 2 × 10-2 g/kg PO
compound,measurement,setting,value
CC(=O)Oc1ccccc1C(=O)O [Aspirin],aggregation percent,rabbit platelet,39.94 ± 2.05 %
same,platelet aggregation percent (max),rat platelet,31.06 ± 3.80 %
same,greenweight of thrombus,male Wistar rats,18.28 ± 1.28 mg
Cc1c(N(C)C)c(=O)n(-c2ccccc2)n1C [aminopyrine],pain threshold in the electrostimulation experiment,female NIH mice [1]; after administration,21.3 ± 5.5 s
same,pain threshold in the electrostimulation experiment,female NIH mice [1]; before administration,4.8 ± 1.0 s
same,twist times,female NIH mice [2],2.8 ± 1.3
COc1cc2c(cc1OC)[C@@H]1Cc3ccc(OC)c(OC)c3CN1CC2 [tetrahydropalmatine],Amount of spontaneous activity,Kunming mice,24.3 ± 4.3
CN1CC[C@]23c4c5ccc(O)c4O[C@H]2[C@@H](O)C=C[C@H]3[C@H]1C5.Cl [Morphine hydrochloride],pain threshold (hot-plate method),"female NIH mice [3]; 1/2 h after administration, cut-off 60 s",>60 s
same,pain threshold (hot-plate method),"female NIH mice [3]; 1 h after administration, cut-off 60 s",>60 s
same,pain threshold (hot-plate method),"female NIH mice [3]; 3 h after administration, cut-off 60 s",>60 s
same,pain threshold (hot-plate method),"female NIH mice [3]; 5 h after administration, cut-off 60 s",>60 s
same,pain threshold (hot-plate method),female NIH mice [3]; before administration,22.5 ± 2.4 s
same,pain threshold (tail-whipping method),SD white rats; 1/2 h after administration,9.2 ± 0.8
same,pain threshold (tail-whipping method),SD white rats; 1 h after administration,5.7 ± 0.4
same,pain threshold (tail-whipping method),SD white rats; 2 h after administration,4.5 ± 0.4
same,pain threshold (tail-whipping method),SD white rats; 4 h after administration,3.3 ± 0.4
same,pain threshold (tail-whipping method),SD white rats; before administration,3.2 ± 0.3
C[C@H](CS)C(=O)N1CCC[C@H]1C(=O)O [Captopril],blood pressure,[4]; 1/2 week,113.5 ± 3.9
same,blood pressure,[4]; 1 week,138.2 ± 3.6
same,blood pressure,[4]; 2 week,142.3 ± 1.8
same,blood pressure,[4]; 3 week,140.0 ± 2.0
same,blood pressure,[4]; before administration,170.5 ± 2.9
